# Assay results as given in US11766470B2, “Manufacture, formulation and dosing of apraglutide” (VectivBio AG, priority 2020, dated 2023).
# Like-named read-outs stand apart in the source and are kept apart here. Square brackets hold non-standard residues; d marks the D form. Peptide text beside a SMILES is read from it. ξ: configuration not given here. Ile(3ξ) = CCC(C)[C@H](N)C(=O)O; Thr(3ξ) = CC(O)[C@H](N)C(=O)O; Nle = CCCC[C@H](N)C(=O)O
# Experiments:
# [1] = tested on: patients with SBS-IF or SBS-II; assay: Safety assessments (adverse events) in Phase 2 metabolic balance trial (Example 6)
# Protocol: Patients were treated with once weekly 5 mg apraglutide for four weeks. Apraglutide was provided as a freeze-dried powder for reconstitution in sterile water prior to injection, and treatments were administered as subcutaneous injections in the abdominal area. A 72-hour metabolic balance study was performed at baseline and at the end of the treatment period (starting one day after the fourth and last apraglutide injection). Each 72-hour metabolic balance study was performed during a five-day hospital admission. On the day of admission, patients were instructed to create a 24-hour drinking menu based on their habitual oral fluid intake. The drinking menu was to be followed during each balance study. On the second day of admission, just after the patients had urinated and emptied their stoma bags or defecated, the balance study was initiated. […] Daily PS and compliance to the predefined drinking menu was documented during admissions.
# First, second and fourth apraglutide injections were performed at the hospital. Safety assessments included observation for injection site reactions, vital signs, blood samples, electrocardiogram (ECG), urinalysis and body weight. They were performed at baseline, during each injection of the trial drug, four days after first injection, at the end of treatment and 4-6 weeks after last dosing at the end of the trial, as shown in Table 20. Liver enzymes were measured prior to each drug administration.
# hGLP-2 receptor = molecular target: T1, hGLP-2 receptor (Homo sapiens, UniProt O95838); assay: hGLP-2 receptor transcriptional reporter gene assay (cAMP-responsive luciferase) in HEK-293 cells (Example 2); format: cell-based
# T1 construct: expressed in transfected cells; host or cells: HEK-293 (human embryonic kidney), transient transfection
# T1 sequence (O95838 1-553): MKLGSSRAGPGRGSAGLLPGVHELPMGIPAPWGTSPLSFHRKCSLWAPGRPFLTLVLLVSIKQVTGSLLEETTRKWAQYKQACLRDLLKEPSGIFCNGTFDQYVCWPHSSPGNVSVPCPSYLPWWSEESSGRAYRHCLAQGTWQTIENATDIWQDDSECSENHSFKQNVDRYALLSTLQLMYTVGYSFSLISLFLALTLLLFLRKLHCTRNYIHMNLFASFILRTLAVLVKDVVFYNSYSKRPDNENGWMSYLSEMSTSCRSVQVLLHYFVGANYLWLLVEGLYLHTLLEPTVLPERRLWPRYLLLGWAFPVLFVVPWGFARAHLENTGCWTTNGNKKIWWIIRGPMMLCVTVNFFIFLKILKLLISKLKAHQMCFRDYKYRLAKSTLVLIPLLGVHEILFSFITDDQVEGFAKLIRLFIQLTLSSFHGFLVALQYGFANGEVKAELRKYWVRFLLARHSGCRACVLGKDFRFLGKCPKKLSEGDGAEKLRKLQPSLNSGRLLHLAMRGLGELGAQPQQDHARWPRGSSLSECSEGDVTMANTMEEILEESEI
# Description: To determine activities of GLP-2 agonists of the present disclosure on the hGLP-2 receptor, a transcriptional reporter gene assay is used. Two constructs are transiently transfected into a human embryonic kidney cell line (HEK-293): an hGLP-2 receptor expression DNA construct and a reporter DNA construct containing intracellular cAMP-responsive promoter elements regulating expression of firefly luciferase. (See for example HimmLer et al., J. Recept. Res., (1993), 13, […] for further guidance on this assay.)
# Cells are exposed for 5 hours to serial dilutions of compounds diluted half-log per dose. After exposure to compounds, cells are lysed, luciferase activity is determined, and compound efficacies and EC50 values are determined by non-linear regression analysis. hGLP-2, a naturally occurring 33-amino acid peptide ligand, is used as an internal control in each experiment.
# [2] = tested on: subjects with severe renal impairment; assay: Safety in Phase I renal impairment trial (Example 10); format: in vivo, human; conditions: 5 mg single SC dose
# Protocol: The following non-limiting example describes a Phase I clinical trial in which subjects with normal and impaired kidney function are treated with the apraglutide formulations of the present disclosure. This Phase I clinical trial investigates the pharmacokinetics and safety of a single subcutaneous dose of 5 mg apraglutide in subjects with varying degrees of renal function. The renal function is calculated by the estimated glomerular filtration rate (eGFR) according to the Chronic Kidney Disease Epidemiology (CKD-EPI) Creatinine Equation.
# The trial is a two-stage, open label, multi-center, non-randomized, Phase I trial. In Part 1 of the trial, 8 subjects with severe renal impairment (Cohort 1) and 6 subjects with normal renal function (Cohort 2) will be administered a single dose 5 mg apraglutide of the present disclosure. In Part 2 of the trial, 8 subjects with moderate renal impairment (Cohort 3) and 8 subjects with mild renal impairment (Cohort 4) will be administered a single dose 5 mg apraglutide of the present disclosure. Subjects will be enrolled if the geometric mean ratio (GMR) of AUCinf or AUClast for the severe renal impairment group compared to the control group is ≥2.
# The secondary endpoints to be evaluated, include, but are not limited to: • 1. […] Clinically significant change from baseline in recorded triplicate 12-lead ECG at days 14-28 • 10. […]
# [3] = Plasma concentration of apraglutide (LC-MS/MS) in Phase 2 SBS-IF trial (Example 5); format: in vivo; conditions: human; for level at 168 h: sc, read-out: Mean plasma concentration before the second dose (Ctrough)
# Description: Blood samples for analysis of plasma concentration of apraglutide and fasting plasma L-citrulline, a marker of enterocyte mass, were collected at baseline, during first and second treatment injection, four days after first treatment injection and at the end of treatment.
# Apraglutide and L-citrulline were quantified using a validated LC-MS-based method. For apraglutide, the analytical method used solid-phase extraction purification of the intact apraglutide molecule and its internal standard. The compounds were identified and quantified using reversed-phase HPLC with MS/MS detection using an AB Sciex API 5000 quadrupole mass spectrometer. For samples below the limit of quantification of 5.00 ng/mL, compounds were identified and quantified using reversed-phase UHPLC with MS/MS detection using an AB Sciex API 5500 quadrupole mass spectrometer. For L-citrulline, the analytical method used protein precipitation extraction of L-Citrulline and its internal standard. The compounds were identified and quantified using Hilic HPLC with MS/MS detection using an AB Sciex API 5000 quadrupole mass spectrometer.
smiles,measurement,setting,value
"CCCC[C@H](NC(=O)[C@H](CCC(=O)O)NC(=O)[C@H](CC(=O)O)NC(=O)[C@H](CO)NC(=O)[C@H](Cc1ccccc1)NC(=O)[C@H](CO)NC(=O)CNC(=O)[C@H](CC(=O)O)NC(=O)CNC(=O)[C@@H](N)Cc1c[nH]cn1)C(=O)N[C@H](Cc1ccccc1)C(=O)N[C@H](C(=O)N[C@H](C(=O)N[C@@H](CC(C)C)C(=O)N[C@@H](CC(=O)O)C(=O)N[C@@H](CC(C)C)C(=O)N[C@@H](CC(C)C)C(=O)N[C@@H](C)C(=O)N[C@@H](C)C(=O)N[C@@H](CCCNC(=N)N)C(=O)N[C@@H](CC(=O)O)C(=O)N[C@@H](Cc1ccccc1)C(=O)N[C@H](C(=O)N[C@@H](CC(N)=O)C(=O)N[C@@H](Cc1c[nH]c2ccccc12)C(=O)N[C@@H](CC(C)C)C(=O)N[C@H](C(=O)N[C@@H](CCC(N)=O)C(=O)N[C@H](C(=O)N[C@@H](CCCCN)C(=O)N[C@H](C(=O)N[C@H](C(=O)N[C@@H](CC(=O)O)C(N)=O)C(C)O)C(C)CC)C(C)O)C(C)CC)C(C)CC)C(C)CC)C(C)O (stereo partly drawn) [apraglutide, L-histidyl-glycyl-L-aspartyl-glycyl-L-seryl-L-phenylalanyl-L-seryl-L-aspartyl-L-glutamyl-L-norleucyl-D-phenylalanyl-L-threonyl-Lisoleucyl-L-leucyl-L-aspartyl-L-leucyl-L-leucyl-L-alanyl-L-alanyl-L-arginyl-L-aspartyl-L-phenylalanyl-L-isoleucyl-L-asparaginyl-Ltryptophanyl-L-leucyl-L-isoleucyl-L-glutaminyl-L-threonyl-L-lysyl-L-isoleucyl-L-threonyl-Laspartic acid amide] (H-HGDGSFSDE[Nle][dF][Thr(3ξ)][Ile(3ξ)]LDLLAARDF[Ile(3ξ)]NWL[Ile(3ξ)]Q[Thr(3ξ)]K[Ile(3ξ)][Thr(3ξ)]D-NH2)","Injection site reactions (transient), number of patients",[1]; 5 mg,One
same,Patients with serious adverse events,[1]; 5 mg,two
same,Serious adverse events assessed as related to the trial drug (abdominal pain),[1]; 5 mg,One
same,"Serious adverse events, number",[1]; 5 mg,three
same,Safety and tolerability in words,"[1]; 5 mg once weekly, four weeks, SBS-II and SBS-IF",safe and well tolerated
same,"Abdominal pain, number of patients","[1]; SBS-IF (N = 4), 5 mg",2
same,"Any adverse event, number of patients","[1]; SBS-IF (N = 4), 5 mg",4
same,"Flatulence, number of patients","[1]; SBS-IF (N = 4), 5 mg",1
same,"Fluid retention, number of patients","[1]; SBS-IF (N = 4), 5 mg",1
same,"Gastrointestinal stoma complication, number of patients","[1]; SBS-IF (N = 4), 5 mg",2
same,"Gastrointestinal stoma output abnormal, number of patients","[1]; SBS-IF (N = 4), 5 mg",1
same,"Gastrointestinal stoma output decreased, number of patients","[1]; SBS-IF (N = 4), 5 mg",3
same,"Nausea, number of patients","[1]; SBS-IF (N = 4), 5 mg",4
same,"Polyuria, number of patients","[1]; SBS-IF (N = 4), 5 mg",1
same,"Stoma complication, number of patients","[1]; SBS-IF (N = 4), 5 mg",3
same,"Weight increased, number of patients","[1]; SBS-IF (N = 4), 5 mg",0
same,"Abdominal pain, number of patients","[1]; SBS-II (N = 4), 5 mg",1
same,"Any adverse event, number of patients","[1]; SBS-II (N = 4), 5 mg",4
same,"Flatulence, number of patients","[1]; SBS-II (N = 4), 5 mg",3
same,"Fluid retention, number of patients","[1]; SBS-II (N = 4), 5 mg",1
same,"Gastrointestinal stoma complication, number of patients","[1]; SBS-II (N = 4), 5 mg",3
same,"Gastrointestinal stoma output abnormal, number of patients","[1]; SBS-II (N = 4), 5 mg",3
same,"Gastrointestinal stoma output decreased, number of patients","[1]; SBS-II (N = 4), 5 mg",3
same,"Nausea, number of patients","[1]; SBS-II (N = 4), 5 mg",1
same,"Polyuria, number of patients","[1]; SBS-II (N = 4), 5 mg",2
same,"Stoma complication, number of patients","[1]; SBS-II (N = 4), 5 mg",3
same,"Weight increased, number of patients","[1]; SBS-II (N = 4), 5 mg",2
same,"Abdominal pain, number of patients","[1]; Total (N = 8), 5 mg",3
same,"Any adverse event, number of patients","[1]; Total (N = 8), 5 mg",8
same,"Flatulence, number of patients","[1]; Total (N = 8), 5 mg",4
same,"Fluid retention, number of patients","[1]; Total (N = 8), 5 mg",2
same,"Gastrointestinal stoma complication, number of patients","[1]; Total (N = 8), 5 mg",5
same,"Gastrointestinal stoma output abnormal, number of patients","[1]; Total (N = 8), 5 mg",4
same,"Gastrointestinal stoma output decreased, number of patients","[1]; Total (N = 8), 5 mg",6
same,"Nausea, number of patients","[1]; Total (N = 8), 5 mg",5
same,"Polyuria, number of patients","[1]; Total (N = 8), 5 mg",3
same,"Stoma complication, number of patients","[1]; Total (N = 8), 5 mg",6
same,"Weight increased, number of patients","[1]; Total (N = 8), 5 mg",2
same,"Agonist activity, potency and selectivity at the GLP-2 receptor, in words",hGLP-2 receptor,"selective, full agonist of the GLP-2 receptor with potency and selectivity comparable to native GLP-2"
same,"Safety in patients with severe CKD, in words",[2],"safe to dose the patients with severe CKD with apraglutide 5 mg, without the risk of overdose"
same,Tmax,"[3]; SBS-IF patients, SC, read-out: Time of maximum mean plasma concentration after dosing",72 h
same,level at 168 h,[3]; 5 mg treatment period,4.5 ng/mL
same,level at 168 h,[3]; 10 mg treatment period,8.9 ng/mL
